Data reported in US10660876B2, “Amino compounds for treatment of medical disorders” (Achillion Pharmaceuticals, Inc., priority 2015, dated 2020).

Molecular target: Human Factor D (Homo sapiens (Human), UniProt P00746)
Experiment: Human Factor D Assay
Assay type: biochemical
Conditions: Table 1; Factor D purified from human serum, 80 nM, substrate Z-L-Lys-SBzl; read-out: IC50
Protocol: Example 12. Human Factor D Assay
Human Factor D (purified from human serum, Complement Technology, Inc.) at 80 nM final concentration is incubated with test compound at various concentrations for 5 minutes at room temperature in 50 mM Tris, 1M NaCl, pH 7.5. A synthetic substrate Z-L-Lys-SBzl and DTNB (Ellman's reagent) are added to final concentrations of 100 μM each. Absorbance at 405 nm (A405) is recorded at 30 second intervals for 30 minutes using a microplate spectrophotometer. IC50 values are calculated by nonlinear regression of complement Factor D reaction rates as a function of test compound concentration.

Chain of Human Factor D (P00746 26-253): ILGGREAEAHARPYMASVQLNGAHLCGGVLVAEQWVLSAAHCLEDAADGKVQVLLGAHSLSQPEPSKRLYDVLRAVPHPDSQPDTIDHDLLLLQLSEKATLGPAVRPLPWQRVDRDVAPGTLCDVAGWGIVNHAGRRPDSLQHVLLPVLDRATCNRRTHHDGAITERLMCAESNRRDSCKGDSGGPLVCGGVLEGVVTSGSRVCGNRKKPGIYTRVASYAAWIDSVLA

| SMILES | IC50 |
| --- | --- |
| CC(=O)c1cn(CC(=O)N2C[C@H](F)C[C@H]2C(=O)N[C@@H]2CCC[C@H]2O)c2ccc(Nc3cncnc3)cc12 [Compound 69, (2S,4R)-1-(2-(3-acetyl-5-(pyrimidin-5-ylamino)-1H-indol-1-yl)acetyl)-4-fluoro-N-((1R,2R)-2-hydroxy-cyclopentyl) pyrrolidine-2-carboxamide] | 1000 to 10000 nM |
| CC(=O)c1cn(CC(=O)N2C[C@H](F)C[C@H]2C(=O)Nc2ccc(O)cn2)c2ccc(Nc3cncnc3)cc12 [Compound 70, (2S,4R)-1-(2-(3-acetyl-5-(pyrimidin-5-ylamino)-1H-indol-1-yl)acetyl)-4-fluoro-N-(5-hydroxypyridin-2-yl)pyrrolidine-2-carboxamide] | 1000 to 10000 nM |
| CC(=O)c1cn(CC(=O)N2C[C@H](F)C[C@H]2C(=O)Nc2cccc3c2NC(=O)C(C)O3)c2ccc(Nc3cncnc3)cc12 (stereo partly drawn) [Compound 71, (2S,4R)-1-(2-(3-acetyl-5-(pyrimidin-5-ylamino)-1H-indol-1-yl)acetyl)-4-fluoro-N-(2-methyl-3-oxo-3,4-dihydro-2H-benzo[b][1,4]oxazin-5-yl)pyrrolidine-2-carboxamide] | 1000 to 10000 nM |
| CC(=O)c1cn(CC(=O)N2C[C@H](F)C[C@H]2C(=O)Nc2cc(O)ccn2)c2ccc(Nc3cncnc3)cc12 [Compound 72, (2S,4R)-1-(2-(3-acetyl-5-(pyrimidin-5-ylamino)-1H-indol-1-yl)acetyl)-4-fluoro-N-(4-hydroxypyridin-2-yl)pyrrolidine-2-carboxamide] | < 1000 nM |
| CC(=O)c1cn(CC(=O)N2C[C@H](F)C[C@H]2C(=O)Nc2nccc(Cl)n2)c2ccc(Nc3cncnc3)cc12 [Compound 73, (2S,4R)-1-(2-(3-acetyl-5-(pyrimidin-5-ylamino)-1H-indol-1-yl)acetyl)-N-(4-chloropyrimidin-2-yl)-4-fluoropyrrolidine-2-carboxamide] | < 1000 nM |
| CC(=O)c1cn(CC(=O)N2C[C@H](F)C[C@H]2C(=O)N[C@H](C)c2oc3ccc(F)cc3c2C)c2ccc(Nc3cncnc3)cc12 [Compound 74, (2S,4R)-1-(2-(3-acetyl-5-(pyrimidin-5-ylamino)-1H-indol-1-yl)acetyl)-4-fluoro-N-((R)-1-(5-fluoro-3-methyl-benzofuran-2-yl)ethyl) pyrrolidine-2-carboxamide] | > 10000 nM |
| CC(=O)c1cn(CC(=O)N2C[C@H](F)C[C@H]2C(=O)N[C@@H](C)c2oc3ccc(F)cc3c2C)c2ccc(Nc3cncnc3)cc12 [Compound 75, (2S,4R)-1-(2-(3-acetyl-5-(pyrimidin-5-ylamino)-1H-indol-1-yl)acetyl)-4-fluoro-N-((S)-1-(5-fluoro-3-methylbenzofuran-2-yl)ethyl) pyrrolidine-2-carboxamide] | < 1000 nM |

Same assay, conditions: Table 2; Factor D purified from human serum, 80 nM, substrate Z-L-Lys-SBzl; read-out: IC50

| SMILES | IC50 |
| --- | --- |
| COCCOc1ncc(Nc2ccc3c(c2)c(C(C)=O)cn3CC(=O)N2C[C@H](F)C[C@H]2C(=O)Nc2cccc(Br)n2)cn1 [Compound 76, (2S,4R)-1-(2-(3-acetyl-5-(2-(2-methoxyethoxy)pyrimidin-5-ylamino)-1H-indol-1-yl)acetyl)-N-(6-bromopyridin-2-yl)-4-fluoropyrrolidine-2-carboxamide] | < 1000 nM |

Same assay, conditions: Table 3; Factor D purified from human serum, 80 nM, substrate Z-L-Lys-SBzl; read-out: IC50 (Stars)

| SMILES | IC50 |
| --- | --- |
| CC(=O)c1cn(CC(=O)N2C[C@H](F)C[C@H]2C(=O)NCc2ccccc2)c2ccc(Nc3cccnc3)cc12 [Compound 146, (2S,4R)-1-(2-(3-acetyl-5-(pyridin-3-ylamino)-1H-indol-1-yl)acetyl)-N-benzyl-4-fluoropyrrolidine-2-carboxamide] | < 1000 nM |
| CC(=O)c1cn(CC(=O)N2C[C@H](F)C[C@H]2C(=O)NCCc2ccccc2)c2ccc(Nc3cccnc3)cc12 [Compound 148, (2S,4R)-1-(2-(3-acetyl-5-(pyridin-3-ylamino)-1H-indol-1-yl)acetyl)-4-fluoro-N-phenethylpyrrolidin-2-carboxamide] | < 1000 nM |
| CC(=O)c1cn(CC(=O)N2C[C@H](F)C[C@H]2C(=O)NCCCc2ccccc2)c2ccc(Nc3cccnc3)cc12 [Compound 150, (2S,4R)-1-(2-(3-acetyl-5-(pyridin-3-ylamino)-1H-indol-1-yl)acetyl)-4-fluoro-N-(3-phenylpropyl) pyrrolidine-2-carboxamide] | < 1000 nM |
| CC(=O)c1cn(CC(=O)N2C[C@H](F)C[C@H]2C(=O)NCCCCc2ccccc2)c2ccc(Nc3cccnc3)cc12 [Compound 152, (2S,4R)-1-(2-(3-acetyl-5-(pyridin-3-ylamino)-1H-indol-1-yl)acetyl)-4-fluoro-N-(4-phenylbutyl) pyrrolidine-2-carboxamide] | < 1000 nM |
| CC(=O)c1cn(CC(=O)N2C[C@H](F)C[C@H]2C(=O)NCc2ccccc2)c2ccc(Nc3cncnc3)cc12 [Compound 153, (2S,4R)-1-(2-(3-acetyl-5-(pyrimidin-5-ylamino)-1H-indol-1-yl)acetyl)-N-benzyl-4-fluoropyrrolidine-2-carboxamide] | < 1000 nM |
| CC(=O)c1cn(CC(=O)N2C[C@H](F)C[C@H]2C(=O)NCCc2ccccc2)c2ccc(Nc3cncnc3)cc12 [Compound 154, (2S,4R)-1-(2-(3-acetyl-5-(pyrimidin-5-ylamino)-1H-indol-1-yl)acetyl)-4-fluoro-N-phenethylpyrrolidin-2-carboxamide] | < 1000 nM |
| CC(=O)c1cn(CC(=O)N2C[C@H](F)C[C@H]2C(=O)NCCCc2ccccc2)c2ccc(Nc3cncnc3)cc12 [Compound 155, (2S,4R)-1-(2-(3-acetyl-5-(pyrimidin-5-ylamino)-1H-indol-1-yl)acetyl)-4-fluoro-N-(3-phenylpropyl) pyrrolidine-2-carboxamide] | < 1000 nM |
| CC(=O)c1cn(CC(=O)N2C[C@H](F)C[C@H]2C(=O)NCCCCc2ccccc2)c2ccc(Nc3cncnc3)cc12 [Compound 156, (2S,4R)-1-(2-(3-acetyl-5-(pyrimidin-5-ylamino)-1H-indol-1-yl)acetyl)-4-fluoro-N-(4-phenylbutyl) pyrrolidine-2-carboxamide] | < 1000 nM |
| CC(=O)c1cn(CC(=O)N2CC[C@H]2C(=O)Nc2cccc(C)n2)c2ccc(Nc3cccnc3)cc12 [Compound 159, (S)-1-(2-(3-acetyl-5-(pyridin-3-ylamino)-1H-indol-1-yl)acetyl)-N-(6-methylpyridin-2-yl)azetidine-2-carboxamide] | > 10000 nM |
| CC(=O)c1cn(CC(=O)N2CC[C@H]2C(=O)Nc2cccc(C)n2)c2ccc(Nc3cncnc3)cc12 [Compound 160, (S)-1-(2-(3-acetyl-5-(pyrimidin-5-ylamino)-1H-indol-1-yl)acetyl)-N-(6-methylpyridin-2-yl)azetidine-2-carboxamide] | > 10000 nM |
| Cc1cccc(NC(=O)[C@@H]2[C@@H]3CCC(C3)N2C(=O)Cn2cc(C(N)=O)c3cc(Nc4ccc(Cl)nn4)ccc32)n1 [Compound 162, 5-((6-chloropyridazin-3-yl)amino)-1-(2-((3S,4R)-3-((6-methylpyridin-2-yl)carbamoyl)-2-azabicyclo[2.2.1]heptan-2-yl)-2-oxoethyl)-1H-indole-3-carboxamide] | < 1000 nM |
| CC(=O)c1nn(CC(=O)N2C[C@H](F)C[C@H]2C(=O)Nc2cccc(Br)n2)c2ccc(Nc3cnc(C)nc3)cc12 [Compound 163, (2S,4R)-1-(2-(3-acetyl-5-((2-methylpyrimidin-5-yl)amino)-1H-indazol-1-yl)acetyl)-N-(6-bromopyridin-2-yl)-4-fluoropyrrolidine-2-carboxamide] | < 1000 nM |
| CC(=O)c1nn(CC(=O)N2C[C@H](F)C[C@H]2C(=O)Nc2cccc(Br)n2)c2ccc(Nc3cncc(F)c3)cc12 [Compound 164, (2S,4R)-1-(2-(3-acetyl-5-((5-yl)amino)-1H-indazol-1-yl)acetyl)-N-(6-bromopyridin-2-yl)-4-fluoropyrrolidine-2-carboxamide] | < 1000 nM |
| CC(=O)c1nn(CC(=O)N2[C@H](C(=O)Nc3nc(Br)ccc3C)C[C@@]3(C)C[C@@H]23)c2ccc(Nc3cncc(F)c3)cc12 [Compound 165, (1R,3S,5R)-2-(2-(3-acetyl-5-((5-fluoropyridin-3-yl)amino)-1H-indazol-1-yl)acetyl)-N-(6-bromo-3-methylpyridin-2-yl)-5-methyl-2-azabicyclo[3.1.0] hexane-3-carboxamide] | < 1000 nM |
